# Experimental data published in patent US7112680B2, “Heterocyclic hydrazones for use as anti-cancer agents” (Austria Wirtschaftsservice Gesellschaft MIT Beschrankter …, priority 2000, dated 2006).
# How the values were obtained:
# [1] = tested on: HT-29 (colon adenocarcinoma); experiment: Inhibition of tumor cell growth, SRB-assay, HT-29; format: cell-based, human; details: Table 2, 72 hours, read-out: IC50 HT-29 (converted)
# In short: (§1)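 Cells seeded at 3,000–10,000 (or ~10,000) per well in 96-well plates; compounds dissolved in DMSO. After treatment, samples fixed, washed and absorbance read on a microplate reader (SRB or MTT read-out according to the assay).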
# MEXF 276L (melanoma) = experiment: Inhibition of tumor cell growth, SRB-assay, MEXF 276L; format: cell-based, human; details: Table 2, 72 hours, read-out: IC50 MEXF276L
# Experimental: The KB cell lines were grown in Dulbecco's modified Eagle's medium (4,5 g glucose/l). To the cultures of KB-C1 cells 1 μg of colchicine/ml, and to the hydroxyurea-resistant KB-HU cells 1 mM hydroxyurea was added every other week. […] 3,000 - 10,000 cells in 200 μl medium were seeded per well into 96-well plates. […] Approximately 10,000 cells per 100 μl were seeded in 96-well plates. […] The substances were dissolved in dimethylsulfoxide (DMSO). […] Subsequently, the samples were fixed, washed, and the absorption was determined by a microplate reader.
# [2] = tested on: Burkitt's lymphoma (CA 46, ATCC No. CRL 1648); experiment: Inhibition of tumor cell growth, MTT-assay, Burkitt's lymphoma; format: cell-based, human; details: Table 2, 72 hours, read-out: IC50 Burkitts
# In short: as §1
# [3] = tested on: HeLa (epitheloid cervix carcinoma); experiment: Inhibition of tumor cell growth, SRB-assay, HeLa; format: cell-based, human; details: Table 2, 72 hours, read-out: IC50 HeLa (converted)
# [4] = tested on: CCRF-CEM (acute lymphoblastic leukemia); experiment: Inhibition of tumor cell growth, MTT-assay, CCRF-CEM; format: cell-based, human; details: Table 2, 72 hours
# [5] = tested on: up to 12 different tumor cells in permeable hoses; experiment: Hollow fibre assay; format: in vivo; details: mice implanted with tumor cells in permeable hoses
# Experimental: Substances Ib-11 and Ib-24 were also tested in the so-called hollow fibre assay for their anti-tumor activity. For this purpose, mice were implanted with up to 12 different tumor cells in permeable hoses and treated with the compounds according to the invention.
SMILES,IC50 [1] [nM],IC50 (MEXF 276L (melanoma)) [nM],IC50 [2] [nM],IC50 [3] [nM],IC50 [4] [nM],anti-tumor activity in hollow fibre assay [5]
CC(=NNc1nc2ccccc2[nH]1)c1cnccn1 [Ib-11],710,2130,1320,1710,900,exhibit anti-tumor activity
CC(=NNc1nc2ccccc2o1)c1cc2ccccc2cn1 [Ib-24],230,650,25,63,130,exhibit anti-tumor activity
